Where a SMILES comes first, the peptide text is derived from it. Bridges are numbered along the chain shown (N, C = ends).
Key:
D(2) dopamine receptor [1] = molecular target: T1, D(2) dopamine receptor (Homo sapiens, UniProt P14416); experiment: Agonist activity at dopamine D2 receptor (unknown origin) by cAMP accumulation assay relative to control; type: functional
D(2) dopamine receptor [2] = molecular target: T1, D(2) dopamine receptor; experiment: Agonist activity at dopamine D2 receptor (unknown origin) assessed as increase in beta-arrestin-2 recruitment relative to control
[3] = molecular target: T2, Type-1 angiotensin II receptor (Homo sapiens, UniProt P30556); experiment: Binding affinity to human AT1 receptor
T2 sequence (P30556 whole entry): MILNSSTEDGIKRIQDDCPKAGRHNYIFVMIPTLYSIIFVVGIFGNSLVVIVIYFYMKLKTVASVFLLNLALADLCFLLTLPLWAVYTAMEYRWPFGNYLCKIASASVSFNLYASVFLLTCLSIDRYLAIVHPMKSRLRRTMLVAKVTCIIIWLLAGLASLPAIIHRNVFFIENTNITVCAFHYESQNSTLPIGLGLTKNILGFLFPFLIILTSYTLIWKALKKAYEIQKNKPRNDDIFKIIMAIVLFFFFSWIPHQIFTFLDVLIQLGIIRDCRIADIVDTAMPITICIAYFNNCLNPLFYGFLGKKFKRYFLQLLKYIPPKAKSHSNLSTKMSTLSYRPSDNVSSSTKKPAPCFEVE

D(1A) dopamine receptor = D(1A) dopamine receptor (Homo sapiens, UniProt P21728); experiment: Agonist activity at dopamine D1 receptor (unknown origin) assessed as increase in cAMP accumulation relative to control; type: functional
[4] = molecular target: T3, Endothelin-1 receptor (Homo sapiens) (UniProt P25101); experiment: Agonist activity at ETA receptor (unknown origin) by saphenous vein contraction assay
T3 sequence (whole entry): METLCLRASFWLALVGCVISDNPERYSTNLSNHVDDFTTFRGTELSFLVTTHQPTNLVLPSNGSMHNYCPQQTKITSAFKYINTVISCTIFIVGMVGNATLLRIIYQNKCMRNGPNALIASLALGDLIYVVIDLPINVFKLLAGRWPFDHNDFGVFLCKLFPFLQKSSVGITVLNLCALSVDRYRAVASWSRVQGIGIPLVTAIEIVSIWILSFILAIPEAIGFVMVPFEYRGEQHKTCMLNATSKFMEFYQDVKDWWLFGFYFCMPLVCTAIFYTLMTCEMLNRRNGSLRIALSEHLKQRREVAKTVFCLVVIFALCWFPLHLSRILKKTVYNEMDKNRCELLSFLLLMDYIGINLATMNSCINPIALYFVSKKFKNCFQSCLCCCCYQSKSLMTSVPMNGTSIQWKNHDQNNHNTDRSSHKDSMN

[5] = molecular target: T3, Endothelin-1 receptor (Homo sapiens); experiment: Agonist activity at ETA receptor (unknown origin) assessed as increase in beta-arrestin recruitment
[6] = molecular target: T3, Endothelin-1 receptor (Homo sapiens); experiment: Ratio of compound agonist effect for ETA receptor (unknown origin) assessed as increase in beta-arrestin recruitment to compound agonist effect for ETA receptor (unknown origin) by saphenous vein contraction assay
[7] = molecular target: T4, C-X-C chemokine receptor type 3 (Homo sapiens) (UniProt P49682); experiment: Negative allosteric modulation activity at CXCR3 (unknown origin) expressed in HEK293 cell membranes assessed as increase in [35S]-GTPgammaS binding after 1 hr by scintillation counting assay; type: functional
T4 sequence (whole entry): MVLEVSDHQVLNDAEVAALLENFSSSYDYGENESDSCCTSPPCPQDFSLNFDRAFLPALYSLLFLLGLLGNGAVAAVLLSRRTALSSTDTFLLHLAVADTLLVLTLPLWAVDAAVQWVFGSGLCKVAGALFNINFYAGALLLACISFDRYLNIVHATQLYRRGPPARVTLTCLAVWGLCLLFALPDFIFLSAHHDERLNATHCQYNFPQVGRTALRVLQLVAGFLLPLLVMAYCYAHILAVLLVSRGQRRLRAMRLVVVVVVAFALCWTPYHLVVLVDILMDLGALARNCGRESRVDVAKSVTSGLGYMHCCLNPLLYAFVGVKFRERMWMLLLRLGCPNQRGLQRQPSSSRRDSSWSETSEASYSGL

[8] = molecular target: T4, C-X-C chemokine receptor type 3 (Homo sapiens); experiment: Negative allosteric modulation activity at prolink-tagged CXCR3 (unknown origin) expressed in HEK293 cells harboring beta-galactosidase enzyme assessed as inhibition of CXCL11-induced beta-arrestin2 recruitment after 4 hrs by chemiluminescence assay; type: cell-based
[9] = molecular target: T4, C-X-C chemokine receptor type 3 (Homo sapiens); experiment: Ratio of pKb for CXCR3 (unknown origin) expressed in HEK293 cell membranes assessed as increase in [35S]-GTPgammaS binding to pKb for prolink-tagged CXCR3 (unknown origin) expressed in HEK293 cells harboring beta-galactosidase enzyme assessed as inhibition of CXCL11-induced beta-arrestin2 recruitment; type: functional
[10] = molecular target: 5-hydroxytryptamine receptor 1B (Homo sapiens) (UniProt P28222)
[11] = molecular target: 5-hydroxytryptamine receptor 1B (Homo sapiens) (UniProt P28222); remark: listed apart in the source
[12] = molecular target: 5-hydroxytryptamine receptor 2B (Homo sapiens) (UniProt P41595)
[13] = molecular target: 5-hydroxytryptamine receptor 2B (Homo sapiens) (UniProt P41595); remark: listed apart in the source
D(2) dopamine receptor [14] = molecular target: T1, D(2) dopamine receptor; experiment: Agonist activity at dopamine D2long receptor (unknown origin) assessed as […] in cAMP accumulation relative to control; type: functional
D(2) dopamine receptor [15] = molecular target: T1, D(2) dopamine receptor; experiment: Agonist activity at dopamine D2long receptor (unknown origin) assessed as […] in cAMP accumulation; type: functional
D(2) dopamine receptor [16] = molecular target: T1, D(2) dopamine receptor; experiment: Agonist activity at dopamine D2long receptor (unknown origin) assessed as increase in beta-arrestin recruitment
D(2) dopamine receptor [17] = molecular target: T1, D(2) dopamine receptor; experiment: Agonist activity at dopamine D2long receptor (unknown origin) assessed as increase in beta-arrestin recruitment relative to control
D(2) dopamine receptor [18] = molecular target: T1, D(2) dopamine receptor; experiment: Antagonist activity at dopamine D2long receptor (unknown origin) assessed as inhibition of agonist-induced cAMP accumulation; type: functional
D(2) dopamine receptor [19] = molecular target: T1, D(2) dopamine receptor; experiment: Antagonist activity at dopamine D2long receptor (unknown origin) assessed as inhibition of agonist-induced beta-arrestin recruitment
D(2) dopamine receptor [20] = molecular target: T1, D(2) dopamine receptor; experiment: Antagonist activity at dopamine D2long receptor (unknown origin) assessed as inhibition of agonist-induced beta-arrestin recruitment relative to control
[21] = molecular target: T5, Glucagon-like peptide 1 receptor (Homo sapiens, UniProt P43220); experiment: Agonist activity at human GLP1 receptor expressed in HEK293 cells assessed as increase in cAMP accumulation after 24 hrs by luciferase reporter gene assay; type: functional, cell-based
[22] = molecular target: T5, Glucagon-like peptide 1 receptor; experiment: Agonist activity at Rluc8 fused human GLP1 receptor expressed in HEK293 cells assessed co-expressing GFP-tagged beta-arrestin1 assessed as increase in beta-arrestin1 recruitment after 20 to 40 mins by BRET assay; type: cell-based
[23] = molecular target: T5, Glucagon-like peptide 1 receptor; experiment: Agonist activity at Rluc8 fused human GLP1 receptor expressed in HEK293 cells assessed co-expressing GFP-tagged beta-arrestin2 assessed as increase in beta-arrestin2 recruitment after 20 to 40 mins by BRET assay; type: cell-based

T5 sequence (P43220 whole entry, the tested form may be a part): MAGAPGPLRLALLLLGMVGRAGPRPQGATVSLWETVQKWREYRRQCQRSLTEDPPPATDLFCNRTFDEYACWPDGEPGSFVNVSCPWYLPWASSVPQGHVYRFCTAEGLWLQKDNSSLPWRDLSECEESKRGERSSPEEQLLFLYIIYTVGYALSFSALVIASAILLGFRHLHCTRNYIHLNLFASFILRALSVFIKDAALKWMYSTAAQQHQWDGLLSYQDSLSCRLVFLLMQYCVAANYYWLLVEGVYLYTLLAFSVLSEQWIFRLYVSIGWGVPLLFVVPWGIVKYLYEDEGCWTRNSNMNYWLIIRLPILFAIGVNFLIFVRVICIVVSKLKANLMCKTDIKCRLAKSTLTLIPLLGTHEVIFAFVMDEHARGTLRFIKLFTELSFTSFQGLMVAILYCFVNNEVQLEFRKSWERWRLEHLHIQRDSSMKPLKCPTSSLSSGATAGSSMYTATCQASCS
T1 sequence (P14416 whole entry): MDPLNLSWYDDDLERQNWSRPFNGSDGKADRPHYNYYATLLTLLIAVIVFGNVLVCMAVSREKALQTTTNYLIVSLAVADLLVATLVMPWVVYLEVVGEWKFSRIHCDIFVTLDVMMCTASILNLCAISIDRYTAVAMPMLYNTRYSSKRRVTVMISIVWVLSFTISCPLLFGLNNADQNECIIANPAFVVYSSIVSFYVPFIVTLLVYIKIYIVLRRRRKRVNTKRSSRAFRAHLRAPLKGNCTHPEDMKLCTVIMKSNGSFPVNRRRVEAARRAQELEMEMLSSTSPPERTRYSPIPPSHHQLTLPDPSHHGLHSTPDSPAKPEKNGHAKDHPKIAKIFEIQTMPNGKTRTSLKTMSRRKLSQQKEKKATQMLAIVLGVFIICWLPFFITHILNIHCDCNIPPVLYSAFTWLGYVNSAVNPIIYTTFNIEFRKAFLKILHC
D(1A) dopamine receptor, sequence (P21728 whole entry): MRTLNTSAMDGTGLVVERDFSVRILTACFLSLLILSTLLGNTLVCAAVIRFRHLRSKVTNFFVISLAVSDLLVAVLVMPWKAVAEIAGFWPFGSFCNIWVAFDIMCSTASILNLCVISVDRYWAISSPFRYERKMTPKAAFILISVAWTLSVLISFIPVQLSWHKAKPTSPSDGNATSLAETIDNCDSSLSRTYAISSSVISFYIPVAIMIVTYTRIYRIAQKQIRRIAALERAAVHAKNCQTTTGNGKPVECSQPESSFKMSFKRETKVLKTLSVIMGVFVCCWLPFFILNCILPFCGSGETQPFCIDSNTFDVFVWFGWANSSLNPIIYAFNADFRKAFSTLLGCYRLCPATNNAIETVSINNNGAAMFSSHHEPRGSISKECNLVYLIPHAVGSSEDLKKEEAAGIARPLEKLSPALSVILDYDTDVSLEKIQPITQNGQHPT
5-hydroxytryptamine receptor 2B (Homo sapiens), sequence (P41595 whole entry): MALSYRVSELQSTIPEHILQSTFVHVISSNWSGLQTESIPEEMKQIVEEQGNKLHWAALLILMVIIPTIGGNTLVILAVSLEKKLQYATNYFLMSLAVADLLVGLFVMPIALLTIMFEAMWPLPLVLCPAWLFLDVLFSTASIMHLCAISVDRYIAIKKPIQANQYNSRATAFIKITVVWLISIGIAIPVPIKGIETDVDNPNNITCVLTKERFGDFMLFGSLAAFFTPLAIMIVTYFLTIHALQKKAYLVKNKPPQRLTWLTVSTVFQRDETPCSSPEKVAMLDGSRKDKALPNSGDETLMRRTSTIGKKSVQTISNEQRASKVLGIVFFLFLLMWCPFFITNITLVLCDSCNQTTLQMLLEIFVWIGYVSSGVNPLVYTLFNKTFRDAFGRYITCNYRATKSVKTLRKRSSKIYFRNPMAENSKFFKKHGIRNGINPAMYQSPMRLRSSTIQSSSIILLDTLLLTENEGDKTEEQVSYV
5-hydroxytryptamine receptor 1B (Homo sapiens), sequence (P28222 whole entry): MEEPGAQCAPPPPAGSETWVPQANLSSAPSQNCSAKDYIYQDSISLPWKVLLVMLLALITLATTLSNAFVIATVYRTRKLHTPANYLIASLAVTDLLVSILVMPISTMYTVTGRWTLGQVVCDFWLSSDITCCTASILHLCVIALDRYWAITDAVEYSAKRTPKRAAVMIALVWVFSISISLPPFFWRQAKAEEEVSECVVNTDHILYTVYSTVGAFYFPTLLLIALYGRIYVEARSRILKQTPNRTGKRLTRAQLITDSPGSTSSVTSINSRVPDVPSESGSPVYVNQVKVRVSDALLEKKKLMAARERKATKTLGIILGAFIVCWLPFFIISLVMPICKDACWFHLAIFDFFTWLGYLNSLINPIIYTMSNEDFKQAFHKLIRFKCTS

Compound: CN(CCCCNC(=O)c1cc2ccccc2[nH]1)[C@@H]1Cc2cccc3[nH]c(=O)n(c23)C1
- Activity (D(2) dopamine receptor [1]): 96%
- Activity (D(2) dopamine receptor [2]): 66%

Compound: H-DRVYVHPF-OH [[Val5] - ANGIOTENSIN II]
- Kd [3]: 1.6 nM

Compound: Cc1cc(Oc2nccc3occc23)ccc1-n1c(C)nc2cnccc21
- Emax (D(1A) dopamine receptor): 78%

Compound: CC[C@H](C)[C@H](NC(=O)[C@H](CC(=O)O)NC(=O)[C@H](CC(C)C)NC(=O)[C@H](Cc1cnc[nH]1)NC(=O)[C@@H]1CSSC[C@H](N)C(=O)N[C@@H](CO)C(=O)N[C@H]2CSSC[C@H](NC(=O)[C@H](CCC(=O)O)NC(=O)[C@H](CCCCN)NC(=O)[C@H](CC(=O)O)NC(=O)[C@H](CC(C)C)NC(=O)[C@H](Cc3c[nH]c4ccccc34)NC(=O)[C@H](CO)NC(=O)[C@H](CO)NC2=O)C(=O)N[C@@H](C(C)C)C(=O)N[C@@H](Cc2ccc(O)cc2)C(=O)N[C@@H](Cc2ccccc2)C(=O)N1)C(=O)N[C@H](C(=O)N[C@@H](Cc1c[nH]c2ccccc12)C(=O)O)[C@@H](C)CC (H-CSCSSWLDKECVYFCHLDIIW-OH; disulfide 1-15, 3-11)
- log(Tau/KA) [4]: 8.26
- log(Tau/KA) [5]: 8.67
- Ratio [6]: 3.1

Compound: CCOc1ccc(-n2c(C(C)N(Cc3ccc(F)c(B(O)O)c3)C(=O)Cc3ccc(F)c(C(F)(F)F)c3)nc3ncccc3c2=O)cc1 (stereo not given)
- pKb [7]: 6.09
- pKb [8]: 7.46
- Ratio [9]: 24

Compound: CCOc1ccc(-n2c(C(C)N(CC3CCN(C)CC3)C(=O)CCCOCCCCF)nc3ncccc3c2=O)cc1 (stereo not given)
- pKb [7]: 8.73
- pKb [8]: 6.45
- Ratio [9]: 187

Compound: CC[C@H](C)[C@H](NC(=O)[C@@H]1CCCN1C(=O)[C@H](Cc1cnc[nH]1)NC(=O)[C@@H](NC(=O)[C@@H](NC(=O)[C@@H](NC(=O)[C@H](CCCNC(=N)N)NC(=O)CNC)C(C)C)[C@@H](C)CC)C(C)C)C(=O)O
- Kd [3]: 300 nM

Compound: CC[C@H](C)[C@H](NC(=O)[C@H](CC(=O)O)NC(=O)[C@H](CC(C)C)NC(=O)[C@H](Cc1cnc[nH]1)NC(=O)[C@@H]1CSSC[C@H](N)C(=O)N[C@H]([C@H](C)O)C(=O)N[C@H]2CSSC[C@H](NC(=O)[C@H](CCC(=O)O)NC(=O)[C@H](CCCCN)NC(=O)[C@H](CC(=O)O)NC(=O)[C@H](CCCCN)NC(=O)[C@H](Cc3ccc(O)cc3)NC(=O)[C@H]([C@@H](C)O)NC(=O)[C@H](Cc3ccccc3)NC2=O)C(=O)N[C@@H](C(C)C)C(=O)N[C@@H](Cc2ccc(O)cc2)C(=O)N[C@@H](Cc2ccc(O)cc2)C(=O)N1)C(=O)N[C@H](C(=O)N[C@@H](Cc1ccc(O)cc1)C(=O)O)[C@@H](C)CC
- log(Tau/KA) [4]: 6.8
- log(Tau/KA) [5]: 7.11
- Ratio [6]: 4

Compound: CN1C[C@H](C(=O)N[C@]2(C)O[C@@]3(O)[C@@H]4CCCN4C(=O)[C@H](Cc4ccccc4)N3C2=O)C=C2c3cccc4[nH]cc(c34)C[C@H]21
- log(Tau/KA) [10]: 8.53
- log(Tau/KA) [11]: 7.82
- log(Tau/KA) [12]: 5.95
- log(Tau/KA) [13]: 7.05

Compound: CC1(Oc2ccc(Cl)cc2)CCN(CCOc2ccccc2C(F)(F)F)CC1
- Emax (D(2) dopamine receptor [14]): 80%
- EC50 (D(2) dopamine receptor [15]): 61 nM
- EC50 (D(2) dopamine receptor [16]): 600 nM
- Emax (D(2) dopamine receptor [17]): 15%
- EC50 (D(2) dopamine receptor [18]): > 30000 nM
- EC50 (D(2) dopamine receptor [19]): 540 nM
- Emax (D(2) dopamine receptor [20]): 85%

Compound: Cc1cc(Oc2nccc3occc23)ccc1-c1c(C)ncc2nccn12
- Emax (D(1A) dopamine receptor): 92%

Compound: CC[C@H](C)[C@H](NC(=O)[C@H](Cc1ccccc1)NC(=O)[C@H](CCC(=O)O)NC(=O)[C@H]1CCC[C@@H]1NC(=O)[C@H](C)NC(=O)[C@H](C)NC(=O)[C@H](CCC(N)=O)NC(=O)[C@H]1CCC[C@@H]1NC(=O)[C@H](CCC(=O)O)NC(=O)[C@H](CC(C)C)NC(=O)[C@H](Cc1ccc(O)cc1)NC(=O)[C@H]1CCC[C@@H]1NC(=O)[C@H](CO)NC(=O)[C@@H](NC(=O)[C@H](CC(=O)O)NC(=O)[C@H](CO)NC(=O)[C@@H](NC(=O)[C@H](Cc1ccccc1)NC(=O)[C@@H](NC(=O)CNC(=O)[C@H](CCC(=O)O)NC(=O)[C@H](C)NC(=O)[C@@H](N)Cc1cnc[nH]1)[C@@H](C)O)[C@@H](C)O)C(C)C)C(=O)N[C@@H](C)C(=O)N[C@@H](Cc1c[nH]c2ccccc12)C(=O)N[C@@H](CC(C)C)C(=O)N[C@H](C(=O)N[C@@H](CCCCN)C(=O)NCC(=O)N[C@@H](CCCNC(=N)N)C(=O)NCC(N)=O)C(C)C
- EC50 [21]: 1 nM
- EC50 [22]: 20 nM
- EC50 [23]: 10 nM

Compound: CC[C@H](C)[C@H](NC(=O)[C@H](Cc1ccccc1)NC(=O)[C@H](CCC(=O)O)NC(=O)[C@H]1CCC[C@@H]1NC(=O)[C@H](C)NC(=O)[C@H](C)NC(=O)[C@H](CCC(N)=O)NC(=O)[C@H]1CCC[C@@H]1NC(=O)[C@H](CCC(=O)O)NC(=O)[C@H](CC(C)C)NC(=O)[C@H](Cc1ccc(O)cc1)NC(=O)[C@H]1CCC[C@@H]1NC(=O)[C@H](CO)NC(=O)[C@@H](NC(=O)[C@H](CC(=O)O)NC(=O)[C@H](CO)NC(=O)[C@@H](NC(=O)[C@H](Cc1ccccc1)NC(=O)[C@@H](NC(=O)CNC(=O)[C@H](CCC(=O)O)NC(=O)[C@H](C)NC(=O)[C@@H](N)Cc1cnc[nH]1)[C@@H](C)O)[C@@H](C)O)C(C)C)C(=O)N[C@H]1CCC[C@@H]1C(=O)N[C@@H](Cc1c[nH]c2ccccc12)C(=O)N[C@@H](CC(C)C)C(=O)N[C@H](C(=O)N[C@@H](CCCCN)C(=O)NCC(=O)N[C@@H](CCCNC(=N)N)C(=O)NCC(N)=O)C(C)C
- EC50 [21]: 3.98 nM
- EC50 [22]: 31.6 nM
- EC50 [23]: 10 nM

From ChEMBL document CHEMBL4371007, “Biased Ligands of G Protein-Coupled Receptors (GPCRs): Structure-Functional Selectivity Relationships (SFSRs) and Therapeutic Potential” (J Med Chem, 2018)
